Laboratory results from patent publication US5885786A, “Methods for screening of substances for inhibition of multidrug resistance” (priority 1996, dated 1999).
Entries after “also recorded” stand apart in the source; their conditions may differ. *1 amine or outer side, *2 acyl side, *3 side chain or, on linkers, in order; H or OH if unused. Where a SMILES comes first, the peptide text is derived from it. Bridges are numbered along the chain shown (N, C = ends). Roman numbers before positions name the chains, in order. [ ]: non-standard residue; d: D form. Actinocin(9to1) = Cc1c2oc3c(C)ccc(C(=O)[*:1])c3nc-2c(C(=O)[*:2])c(N)c1=O; NMeV = CN[C@H](C(=O)O)C(C)C; Sar = CNCC(=O)O

Tests used:
[1] = cited from earlier work; for absorption (in words): oral or unspecified
[2] = test system: glycosylation of ceramide in MCF-7-AdrR cells (UDP-glucose:ceramide glucosyltransferase); assay: Glycosylation of C6-ceramide and natural glycosphingolipid synthesis, [3H]galactose labeling; type: cell-based
Procedure: FIG. 14A and FIG. 14B. Effect of Tamoxifen on Ceramide Synthesis and Glycosylation in MCF-7-AdrR Cells. FIG. 14: A Influence of tamoxifen on ceramide synthesis. The experiment was conducted as described in the legend to FIG. 13. Aliquots of the total lipid extract were based-hydrolyzed as described in Example I, separated by TLC using solvent system IV, and the resolved [^3 H]ceramide was quantitated by liquid scintillation spectrometry. Results are the mean±SEM of duplicate determinations from two separate experiments. FIG. 14B: Effect of tamoxifen on glycosylation of C6 -ceramide. Cells, in 100×20 mm culture dishes, were preincubated without or with 5.0 μM tamoxifen for 30 min, followed by incubation without or with 5.0 μM C6 -ceramide:BSA (prepared at a 1:1 molar ratio) for an additional 30 min. Cells were labeled thereafter with 1.0 μCi/ml [^3 H]galactose for 24 h. [3H]Galactose uptake was determined and found to be similar in all experimental points (1.0×10^6 cpm/dish). The total extracted lipid was applied to TLC separation and [^3 H]glycosphingolipids were analyzed as described in the legend to FIG. 10. The autoradiography of a representative chromatogram is shown.
In order to explore this notion, a short-chain ceramide analog with a 6-carbon N-acyl group (C6 -ceramide), was utilized as a substrate.

[3] = cited from earlier work
[4] = test system: lipid-1 and -2 formation in MCF-7-AdrR cells; assay: Effect of inhibitors of sphingolipid biosynthesis on lipid-1 and -2 formation; type: cell-based
Procedure: FIG. 5A, FIG. 5B, and FIG. 5C. Effect of inhibitors of sphingolipid biosynthesis on lipid-1 and -2 formation in MCF-7-AdrR cells. Cells, grown to near-confluency in 100×20 mm culture dishes, were radiolabeled with [^3 H]palmitic acid (FIG. 5A), or [^3 H]serine (FIG. 5B, FIG. 5C), in the presence or absence of 10 mM L-cycloserine (FIG. 5A), 50 μM FB1 (FIG. 5B), or 20 μM PPMP (FIG. 5C), for 24 h in RPMI-1640 medium containing 0.1% BSA. Extracted lipids were analyzed by TLC using solvent system II (FIG. 5A, FIG. 5B), or solvent system III (FIG. 5C) as described in Example I. Lac-cer, lactosylceramide.
The effects of various inhibitors of sphingolipid biosynthesis were investigated, using MCF-7-AdrR cells, labeled with either [^3 H]palmitic acid, or [^3 H]serine. The first enzymatic reaction in sphingoid base biosynthesis, catalyzed by serine:palmitoyltransferase, is the formation of 3-ketosphinganine from serine and palmitoyl-CoA (FIG. 1).

[5] = cited from earlier work; remark: listed apart in the source
[6] = test system: glycosylceramide synthesis in MCF-7-AdrR cells; assay: Effect of PPMP on cellular glycosylceramide levels, [3H]serine 24 h; type: cell-based; details: FIG. 16A
From the text: FIG. 16A and FIG. 16B. […] FIG. 16A: Effect of PPMP on cellular glycosylceramide levels.

[7] = test system: MCF-7-AdrR cells; assay: Cell proliferation (MTS) assay: adriamycin toxicity and chemosensitization; details: for effect on adriamycin toxicity / chemosensitization (in words): 5.0 μM tested drug + adriamycin, 72 h, FIG. 15A, 16B
From the text: FIG. 15A and FIG. 15B. […] FIG. 15B: Glycosylceramide levels in MDR Cells following drug treatment. […] In order to avoid differences in [^3 H]glycosylceramide values which account for cell death, the same amount of total radioactive lipid from each sample was applied to TLC separation.
FIG. 16A and FIG. 16B. […] FIG. 16A: Effect of PPMP on cellular glycosylceramide levels. […] [^3 H]Glycosylceramide was quantitated as described in the legend to FIG. 9.
Vehicle (acetone, ethanol) was always added to control (minus drug) wells. The cytotoxic activity of a drug was determined using the Promega CellTiter 96™ AQueous MTS cell proliferation assay kit. Each experimental point was performed in six replicates. MTS/PMS solution (20 μl/well) was aliquoted into all wells, and the cells were incubated for 2-3 h, or until an O.D. of 0.9-1.0 was obtained as a highest reading. Thereafter, absorbence at 490 nm was recorded using an ELISA plate reader (Molecular Devices, San Diego, Calif.).

[8] = test system: acid sphingomyelinase; details: literature; cited from earlier work
[9] = test system: P388-adriamycin resistant cells; details: literature; cited from earlier work
[10] = in vivo; cited from earlier work
[11] = test system: OVCAR-3 (MDR ovarian carcinoma); details: clinically relevant concentrations (Rogan et al., 1984); cited from earlier work
[12] = test system: P-glycoprotein; details: literature; cited from earlier work
[13] = test system: glycosylceramide formation in MCF-7-AdrR cells; assay: Inhibition of [3H]glycosylceramide formation in MCF-7-AdrR cells (TLC, liquid scintillation); type: cell-based; details: 5.0 μM drug, 24 h, MCF-7-AdrR, FIG. 11B; read-out: inhibition of glycosylceramide formation (cpm tritium)
Procedure: FIG. 9. […] Values represent the mean of determinations from three separate experiments, and are calculated as the percent glycosylceramide in the total lipid tritium extract.
FIG. 11A and FIG. 11B. […] FIG. 11: A Autoradiography. […] For autoradiography equal aliquots by volume of total lipid extract were applied to TLC plates. […] [^3 H]Glycosylceramide, visualized in panel A, was quantitated as described in the legend to FIG. 9. Each value represents mean±SEM of determinations from three separate experiments.
FIG. 12. […] [^3 H]Glycosylceramide was quantitated as described in the legend to FIG. 9. Results represents the mean±SEM of determinations from three separate experiments.
MCF-7 cells, grown in medium containing 10% FBS, were switched to media containing 5% FBS. Cell lipids were radiolabeled by adding [^3 H]serine (2.0 μCi/ml), [^3 H]palmitic acid (1.0 μCi/ml), or [^3 H]galactose (1.0 μCi/ml) to the culture medium for the indicated times. Other radiolabels can be substituted. Cells were then rinsed twice with PBS, pH 7.4, and 2 ml of ice-cold methanol containing 2% acetic acid was added. The cells were scraped free, transferred to glass test tubes (13×100 mm), and lipids were extracted by the addition of chloroform (2 ml) followed by water (2 ml). The resulting organic lower phase was withdrawn and evaporated under a stream of nitrogen. Lipids were resuspended in 100 μL of chloroform/methanol (1:1, v/v), and aliquots were applied to TLC plates.
Lipid analysis was carried out by TLC using solvent system I: chloroform/methanol/ammonium hydroxide (40:10:1, v/v) for glycosylceramide separation, solvent system II: chloroform/methanol/water (60:40:8, v/v) for sphingoglycolipid separation, or solvent system III: chloroform/methanol/acetic acid/water (50:30:7:3, v/v) for sphingomyelin separation. For determination of ceramides, an aliquot of the chloroform-soluble lipids was base-hydrolyzed in 0.1N KOH in methanol for 1 h at 37° C., lipids were re-extracted, and separated by TLC using solvent system IV: hexane/diethyl ether/formic acid (60:40:1, v/v).
Radiochromatograms were sprayed with EN^3 HANCE, and exposed for 3-7 days for autofluorgraphy. TLC areas, aligned with bands on the autoradiographs or with iodine-stained commercial lipid standards, were scraped from the plate. Water (0.5 ml) was added to the plate scrapings followed by 4.5 ml of EcoLume counting fluid, and the samples were quantitated by liquid scintillation spectrometry.

[14] = 5.0 μM C6-ceramide, FIG. 14B, […]
[15] = 10 mM L-cycloserine, [3H]palmitic acid, FIG. 5A

Cc1c2oc3c(C)ccc(C(=O)N[C@@H]4C(=O)N[C@H](C(C)C)C(=O)N5CCC[C@H]5C(=O)N(C)CC(=O)N(C)[C@@H](C(C)C)C(=O)O[C@@H]4C)c3nc-2c(C(=O)N[C@@H]2C(=O)N[C@H](C(C)C)C(=O)N3CCC[C@H]3C(=O)N(C)CC(=O)N(C)[C@@H](C(C)C)C(=O)O[C@@H]2C)c(N)c1=O [Actinomycin D] (I: T[dV]P[Sar][NMeV] / II: T[dV]P[Sar][NMeV]; ester I:1-I:C, II:1-II:C; linker I:N-II:N via Actinocin(9to1))
excreted into the urine ([1]; in vivo, iv): 10%
half-life ([1]; in vivo, iv): about 36 hr
blood-brain barrier passage (in words) ([1]; in vivo): does not pass the blood-brain barrier
dose excreted intact into the bile (in words) ([1]; in vivo): Half of the dose

CCCCCCCCCCCCC/C=C/[C@@H](O)[C@H](CO)NC(=O)CCCCC [C6 -ceramide]
natural glycosylceramide level (in words) ([2]; 5.0 μM C6-ceramide, FIG. 14B): not altered
reduction of ganglioside synthesis [2, 14]: 35%
reduction of natural lactosylceramide synthesis [2, 14]: 33%
formation of C6-glycosylceramide (in words) ([2]; cells incubated with C6-ceramide): clearly visible

O=NN(CCCl)C(=O)NCCCl [Carmustine, 1,3bis (2-chloroethyl)-1-nitrosourea]
solubility in water (in words) [3]: poorly soluble in water

CCCCC(C)C(OC(=O)CC(CC(=O)O)C(=O)O)C(CC(C)CC(O)CCCCC(O)CC(O)C(C)N)OC(=O)CC(CC(=O)O)C(=O)O (stereo not shown) [FB1]
level of both lipid-1 and -2 (in words) ([4]; 50 μM FB1, [3H]serine, FIG. 5B): profound reduction

N[C@H]1CONC1=O [L-cycloserine]
lipid-1 formation (in words) [4, 15]: almost complete disappearance
lipid-2 formation (in words) [4, 15]: major inhibition

O=NN(CCCl)C(=O)NC1CCCCC1 [Lomustine, 1-(2-chloro-ethyl)-3-cyclohexyl-1 nitrosourea]
tissue levels vs plasma levels (in words) ([1]; 15 minutes after intravenous administration): comparable to plasma levels
excretion of radioactivity as degradation products (in words) ([1]; within 24 hours, oral 30 mg/m^2 to 100 mg/m^2): about half
ionization (in words) ([3]; physiological pH): relatively unionized
solubility in water (in words) [3]: relatively insoluble

CO[C@@]12[C@H](COC(N)=O)C3=C(C(=O)C(C)=C(N)C3=O)N1C[C@@H]1N[C@@H]12 [Mitomycin]
fraction of dose excreted unchanged in the urine ([5]; human, in vivo, iv): Approximately 10%
clearance from the serum (in words) ([5]; intravenous): rapidly cleared

CCCCCCCCCCCCCCCC(=O)NC(CN1CCOCC1)C(O)c1ccccc1 (stereo not shown) [PPMP]
ceramide levels (in words) ([4]; 20 μM PPMP, FIG. 5C): elevation in ceramide levels
lactosylceramide and gangliosides (in words) ([4]; 20 μM PPMP, FIG. 5C): concomitant reduction
formation of lipid-1 and -2 (in words) ([4]; 20 μM PPMP, [3H]serine, FIG. 5C): blocked completely
inhibition at 5 µM ([6]; 24 h, 5.0 μM PPMP, read-out: maximal reduction in cellular glycosylceramide levels): 86%
IC50 ([6]; PPMP, [3H]serine 24 h, read-out: IC50 for inhibition of glycosylceramide formation): 900 nM
effect on adriamycin toxicity / chemosensitization (in words) [7]: clear sensitization; also recorded: effectively decreased cell survival
effect of the substance alone on cell survival (in words) ([7]; MCF-7-AdrR, alone): no influence itself on cell viability; also recorded: no effect

COc1ccc(CCN(C)CCCOc2ccc(S(=O)(=O)c3c(C(C)C)cn4ccccc34)cc2)cc1OC [SR33557]
inhibition of acid sphingomyelinase (in words) [8]: inhibition of acid sphingomyelinase
reversal of MDR / adriamycin resistance in P388 cells (in words) [9]: reverse MDR

CC[C@]1(O)C[C@H]2CN(CCc3c([nH]c4ccccc34)[C@@](C(=O)OC)(c3cc4c(cc3OC)N(C=O)[C@H]3[C@@](O)(C(=O)OC)[C@H](OC(C)=O)[C@]5(CC)C=CCN6CC[C@]43[C@@H]65)C2)C1 [Vincristine]
distribution in blood cells (in words) ([1]; in vivo): extensively concentrated in platelets
plasma protein binding (in words) ([1]; in vivo): bind to plasma proteins
absorption (in words) [1]: Unpredictable absorption
tolerability / toxicity (in words) [10]: sever neurological toxicity

N.N.[Cl][Pt][Cl] [cisplatin]
absorption (in words) [1]: not absorbed orally
resistance of OVCAR-3 to the drug (in words) [11]: resistant

COc1cc(C[C@H]2c3cc(OC)c(OC)cc3CCN2C)c(Oc2cc3c(cc2OC)-c2c(OC)c(OC)cc4c2[C@H](C3)N(C)CC4)cc1OC [thaliblastine]
binding to P-glycoprotein (in words) [12]: binds to P-glycoprotein
reversal of MDR / adriamycin resistance in P388 cells (in words) [9]: reverses adriamycin resistance

CCC(=C(c1ccccc1)c1ccccc1)c1ccccc1 [triphenylbutene]
inhibition at 5 µM [13]: 13%
effect on adriamycin toxicity / chemosensitization (in words) [7]: no effect
